Test results as given in US20260132123A1, “ABAD INHIBITOR COMPOUNDS” (UNIVERSITY COURT OF THE UNIVERSITY OF ST ANDREWS, priority 2021, published 2026).
Where two headings read alike, the source gives them in different places.

What was measured:
[1] = target: T1, 17β-HSD10 (Homo sapiens, UniProt Q99714); assay: 17β-HSD10 (ABAD) enzyme inhibition assay, NADH oxidation read at 340 nm (primary screen and dose response); assay type: biochemical; conditions: for EC50 / Max. Effect (%) / Hill Slope / Max. Fit / Min. Fit: recombinant 17βHSD10 enzyme assay; for Hill Slope / Max. Fit / Min. Fit: curve fit
T1 construct: Histev (histidine tag with TEV site) (N, cleaved yes); made in house; host or cells: E. coli BL21-CodonPlus
T1 sequence (Q99714 1-261): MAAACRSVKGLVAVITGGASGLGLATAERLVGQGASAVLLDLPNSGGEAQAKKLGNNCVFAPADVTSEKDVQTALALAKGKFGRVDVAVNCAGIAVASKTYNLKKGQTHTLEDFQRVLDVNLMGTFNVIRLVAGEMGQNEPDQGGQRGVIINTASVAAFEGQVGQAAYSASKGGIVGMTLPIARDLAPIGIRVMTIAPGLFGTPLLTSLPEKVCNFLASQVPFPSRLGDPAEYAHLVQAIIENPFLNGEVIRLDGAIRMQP
Procedure, shortened: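 Screening used a 35 min room-temperature endpoint A340 read after compound (10 μM) and enzyme (2.5 nM, E. coli-expressed, His-tag removed) preincubated 15 min, then 100 μM NADH plus acetoacetyl-CoA added. Dose-response runs tracked absorbance kinetically 45 min; buffer pH 7.4 Tris with BSA, DTT.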

[2] = system: mtsABAD HEK293 cells; assay: Lactate dehydrogenase (LDH) cytotoxicity assay; assay type: cell-based, human; conditions: 50 μM compound
Experimental: Cell cytotoxicity was assessed via the measurement of lactate dehydrogenase leakage into the culture medium using a commercially available kit from Pierce (Thermo Scientific cat no. 88953). This was carried out in accordance with the kit guidelines, with the activity of Lactate Dehydrogenase (LDH) being calculated from the change in absorbance at […] as NADH is reduced. HEK293 cells overexpressing mts17β-HSD10 were cultured in phenol-red free media (10% fetal bovine serum (FBS), 1 mM sodium pyruvate, 100 units penicillin, 0.1 mg/mL streptomycin and 2 mM L-glutamine) and seeded at a density of 10,000 cells per well (100 μL, 96 well plates). […] Treated cells were incubated at 37° C. and CO2 (5%) for 24 hours before the LDH assay was performed as per the manufacturer's instructions. Spontaneous control (water) and maximum control (lysis buffer) used in accordance with the kit guide. Absorbance was measured at 490 nm and 680 nm using a SpectraMaxM2e spectrophotometer. The measured LDH activity was used to calculate % cytotoxicity using the following equation: […]

[3] = system: mtsABAD HEK293 cells; assay: Alamar Blue cell viability assay; assay type: cell-based, human; conditions: 50 μM compound
Experimental: Cell viability was assessed via fluorescence change using the commercially available Alamar Blue from ThermoFisher. HEK293 cells overexpressing mts17β-HSD10 were cultured in phenol-red free media (10% FBS, 1 mM sodium pyruvate, 100 units penicillin, 0.1 mg/mL streptomycin and 2 mM L-glutamine) and seeded at a density of 10,000 cells per well (100 μL, 96 well plates). […] Treated cells were then incubated at 37° C. and CO2 (5%) for 24 hours before the assay was performed as per the manufacturer's instructions. Fluorescence was measured at 530 nm excitation and 590 nm emission using a SpectraMaxM2e spectrophotometer.

SMILES | EC50 [1] [µM] | Max. Effect (%) [1] [%] | Hill Slope [1] | Max. Fit [1] | Min. Fit [1] | LDH % Toxicity (50 μM Dose) [2] [%] | Alamar Blue % Viability (50 μM Dose) [3] [%] | IC50 ([1]; 17β-HSD10 inhibition, read-out: IC50) [µM] | IC50 ([1]; 17β-HSD10 dose response / inhibition assay, read-out: 17β-HSD10 pIC50 (converted)) [µM]
Cc1ccsc1C(=O)N1CCC[C@H]1c1ccccc1-c1ccc(C#N)cc1 [ESC1002316] | 0.275 | 101 | 0.93 | 100 | 0 | 3.69 | 80.39 |  | 
Cc1ccsc1C(=O)N1CCC[C@H]1c1ccccc1-c1cccc(S(C)(=O)=O)c1 [ESC1002322] | > 20 | 41 |  |  |  | 6.93 | 89.24 |  | 
CC(C)CN(C(=O)c1ccc(Cl)cc1)c1cccc(N(C)Cc2cnc[nH]2)c1 [ESC1002183, 4-chloro-N-[3-[1H-imidazol-5-ylmethyl(methyl)amino]phenyl]-N-isobutyl-benzamide] | 0.776 | 95 | 1.2 | 97 | 0 | 5.082 | 89.373 |  | 
Cc1ccsc1C(=O)N1CCC[C@H]1c1ccccc1-c1cccc(C(F)(F)F)c1 [ESC1002320] | 0.603 | 99 | 0.91 | 101 | −1 | 5.12 | 83.37 |  | 
COc1cccc(-c2ccccc2[C@@H]2CCCN2C(=O)c2sccc2C)c1 [ESC1002338] | 0.191 | 101 | 1.1 | 100 | 0 | 4.64 | 82.98 | 0.191 | 
COc1ccc(-c2ccccc2[C@H]2CCCN2C(=O)c2sccc2C)cn1 (single isomer, unassigned) [ESC1002162] | 0.49 | 98 | 1 | 99 | 0 | 6.843 | 83.498 |  | 0.49
CC(C)CN(C(=O)Cc1ccccc1)c1cccc(N(C)Cc2cnc[nH]2)c1 [ESC1002167, N-[3-[1H-imidazol-5-ylmethyl(methyl)amino]phenyl]-N-isobutyl-2-phenyl-acetamide] | 12.6 | 62 | 1 | 100 | 0 | 4.492 | 79.269 |  | 
CCCC(=O)N(CC(C)C)c1cccc(N(C)Cc2cnc[nH]2)c1 [ESC1002235, N-[3-[1H-imidazol-5-ylmethyl(methyl)amino]phenyl]-N-isobutyl-butanamide] | 2.95 | 85 | 1.1 | 93 | −3 | 5.54 | 84.09 |  | 
Cc1ccsc1C(=O)N1CCC[C@H]1c1ccccc1-c1cccc(C)c1C [ESC1002339] | 0.525 | 99 | 1.4 | 97 | 7 | 4.39 | 82.52 |  | 
CC(C)CN(C(=O)c1ccccc1F)c1cccc(N(C)Cc2ccccn2)c1 [ESC1002209] | 5.75 | 80 | 0.98 | 104 | 0 | 5.698 | 80.514 |  | 
CC(C)CN(C(=O)C(C)C)c1cccc(N(C)Cc2cnc[nH]2)c1 [ESC1002165, N-[3-[1H-imidazol-5-ylmethyl(methyl)amino]phenyl]-N-isobutyl-2-methyl-propanamide] | 1.66 | 94 | 1 | 100 | 0 | 4.074 | 88.291 |  | 
